Numbers after ± are expanded uncertainties.
Details: 343.15 K, Liquid, Vibrating tube method

CCCCCCC(=O)OCC(COC(=O)CCCCCC)(COC(=O)CCCCCC)COC(=O)CCCCCC [pentaerythritol tetraheptanoate]
Details	mass density [kg/m3]
4672.9 kPa	944.2 ± 1.2
4676.2 kPa	944.1 ± 1.2
4680 kPa	944.2 ± 1.2
4683.3 kPa	944.1 ± 1.2
4687.3 kPa	944.1 ± 1.2
4690.8 kPa	944.1 ± 1.2
4693.9 kPa	944.2 ± 1.2
4698.2 kPa	944.2 ± 1.2
4701.7 kPa	944.1 ± 1.2
4705 kPa	944.2 ± 1.2
4708.9 kPa	944.2 ± 1.2
4712.2 kPa	944.2 ± 1.2
4715.9 kPa	944.1 ± 1.2
4719.3 kPa	944.1 ± 1.2
4723.7 kPa	944.1 ± 1.2
4726.4 kPa	944.2 ± 1.2
4730.1 kPa	944.2 ± 1.2
4733.2 kPa	944.2 ± 1.2
4737.5 kPa	944.3 ± 1.2
4741 kPa	944.2 ± 1.2
4744.3 kPa	944.2 ± 1.2
4747.7 kPa	944.2 ± 1.2
4752.2 kPa	944 ± 1.2
4755.3 kPa	944.1 ± 1.2
4759 kPa	944.1 ± 1.2
4763.1 kPa	944.1 ± 1.2
4766.6 kPa	944.2 ± 1.2
4770.2 kPa	944.3 ± 1.2
4774.2 kPa	944.2 ± 1.2
4777.7 kPa	944.3 ± 1.2
4781.6 kPa	944.1 ± 1.2
4785.1 kPa	944.2 ± 1.2
4788.7 kPa	944.4 ± 1.2
4792.9 kPa	944.3 ± 1.2
4796.7 kPa	944.2 ± 1.2
4800 kPa	944.2 ± 1.2
4804.5 kPa	944.2 ± 1.2
4807.9 kPa	944.3 ± 1.2
4811.2 kPa	944.2 ± 1.2
4815.9 kPa	944.1 ± 1.2
4819.4 kPa	944.2 ± 1.2
4823.2 kPa	944.2 ± 1.2
4826.8 kPa	944.3 ± 1.2
4831 kPa	944.2 ± 1.2
4834.6 kPa	944.2 ± 1.2
4838.2 kPa	944.2 ± 1.2
4842 kPa	944.1 ± 1.2
4846.4 kPa	944.4 ± 1.2
4849.8 kPa	944.2 ± 1.2
4853.5 kPa	944.2 ± 1.2
4857.8 kPa	944.3 ± 1.2
4861.9 kPa	944.3 ± 1.2
4865.4 kPa	944.3 ± 1.2
4869.2 kPa	944.3 ± 1.2
4872.8 kPa	944.2 ± 1.2
4877.3 kPa	944.3 ± 1.2
4881 kPa	944.3 ± 1.2
4884.8 kPa	944.3 ± 1.2
4889.1 kPa	944.2 ± 1.2
4892.9 kPa	944.2 ± 1.2
4896.6 kPa	944.3 ± 1.2
4901.2 kPa	944.3 ± 1.2
4905 kPa	944.3 ± 1.2
4908.5 kPa	944.2 ± 1.2
4913 kPa	944.2 ± 1.2
4916.8 kPa	944.3 ± 1.2
4920.4 kPa	944.2 ± 1.2
4924.1 kPa	944.3 ± 1.2
4928.6 kPa	944.4 ± 1.2
4932.2 kPa	944.4 ± 1.2
4936 kPa	944.3 ± 1.2
4940.7 kPa	944.3 ± 1.2
4944.5 kPa	944.3 ± 1.2
4948.5 kPa	944.4 ± 1.2
4952.3 kPa	944.3 ± 1.2
4956.8 kPa	944.4 ± 1.2
4960.4 kPa	944.2 ± 1.2
4964.6 kPa	944.3 ± 1.2
4968.4 kPa	944.3 ± 1.2
4972.4 kPa	944.2 ± 1.2
4977 kPa	944.2 ± 1.2
4980.7 kPa	944.5 ± 1.2
4985.5 kPa	944.4 ± 1.2
4989.3 kPa	944.4 ± 1.2
4993.1 kPa	944.3 ± 1.2
4996.9 kPa	944.4 ± 1.2
5001.4 kPa	944.3 ± 1.2
5005.4 kPa	944.4 ± 1.2
5009.1 kPa	944.3 ± 1.2
5014.1 kPa	944.4 ± 1.2
5018.1 kPa	944.4 ± 1.2
5022 kPa	944.4 ± 1.2
5027 kPa	944.4 ± 1.2
5030.1 kPa	944.4 ± 1.2
5035.7 kPa	944.4 ± 1.2
5043.5 kPa	944.3 ± 1.2
5047.3 kPa	944.4 ± 1.2
5051.4 kPa	944.4 ± 1.2
5054.7 kPa	944.3 ± 1.2
5058.5 kPa	944.5 ± 1.2
5065.1 kPa	944.5 ± 1.2
5069.1 kPa	944.4 ± 1.2
5072.9 kPa	944.4 ± 1.2
5077 kPa	944.4 ± 1.2
5080.4 kPa	944.4 ± 1.2
5085.2 kPa	944.4 ± 1.2
5089.2 kPa	944.5 ± 1.2
5093.4 kPa	944.5 ± 1.2
5098.2 kPa	944.4 ± 1.2
5102.2 kPa	944.3 ± 1.2
5105.8 kPa	944.4 ± 1.2
5109.6 kPa	944.5 ± 1.2

From the NIST ThermoML archive (doi:10.1021/je060271a)
